Test results as given in patent US11708423B2, “Chimeric engulfment receptor molecules and methods of use” (CERO THERAPEUTICS, INC., priority 2017, dated 2023).

How the values were obtained:
[1] = system: HCC159 lung adenocarcinoma cells; assay: Tim4-IgG1 Fc staining for phosphatidylserine exposure after EGFR inhibitor treatment; assay type: cell-based; settings: 12 hours, increasing concentrations 50 nM and higher
From the text: HCC159 lung adenocarcinoma cells harbor an EGFR mutation and are sensitive to EGFR inhibition.

[2] = system: dexamethasone pre-treated thymocytes; assay: Phagocytosis of thymocytes by CER Ba/F3 cells in presence or absence of Racl inhibitor; assay type: cell-based

SMILES | surface staining with Tim4-IgG1 Fc fusion protein (phosphatidylserine exposure) [1] | effect of Racl inhibitor on phagocytosis by CER21-transduced Ba/F3 cells ([2]; 6 hour co-culture, FACS) | effect of Racl inhibition on CER116 mediated phagocytosis ([2]; Ba/F3 cells, fluorescent micrographs)
C#Cc1cccc(Nc2ncnc3cc(OCCOC)c(OCCOC)cc23)c1 [Erlotinib] | enhanced surface staining with Tim4-IgG1 Fc fusion protein |  | 
CCN(CC)CCCC(C)Nc1nc(C)cc(Nc2ccc3nc(C)cc(N)c3c2)n1 (stereo not shown) [NSC23766] |  | abolishes phagocytosis | abolishes CER116 mediated phagocytosis of thymocytes
C=CC(=O)Nc1cc(Nc2nccc(-c3cn(C)c4ccccc34)n2)c(OC)cc1N(C)CCN(C)C [Osimeritinib] | enhanced surface staining with Tim4-IgG1 Fc fusion protein |  | 
